Reference: US11649239B2, “Crystal form a of (5-amino-8-(2-methyl-6-(trifluoromethyl)pyridin-4-yl)-7-phenyl-[1,2,4]triazolo[1,5-c]pyrimidin-2-yl)methanol (compound 1)” (Medshine Discovery Inc., priority 2018, dated 2023)
In brackets after ≈: the same amount, converted by molar mass. Entries after “also recorded” stand apart in the source; their conditions may differ.

Key:
[1] = system: CT26 cells; test: Pharmacodynamics in vivo in CT-26 model (subcutaneous CT26 tumor in BALB/c nude mice); conditions: anti-PD-1 5 mg/Kg QW; for Volume of tumor: crystal form A 50 mg/Kg BID oral
From the text: Assay Example 4: Study of Pharmacodynamics of Crystal Form a of Compound 1 In Vivo in CT-26 Model
BALB/c nude mice (female, 7 weeks old, and weighing about 16 to 20 g) were kept in a breeding environment of SPF-class animal room, and in single ventilated cages (5 mice per cage). Bedding and water in all cages were disinfected before use. All the animals had free access to the standard certified commercial laboratory diet. A total of 80 mice were purchased from Shanghai Slack Laboratory Animal Co., Ltd. Anti-PD-1 antibody was purchased from BioXcell with the clone of RMP-14 and the product number of BP0146. 0.1 mL of 3×10^5 CT26 cells were subcutaneously inoculated in the right back of each mouse, and the mice were randomly divided into groups for administration.
CT26 cells were subcutaneously inoculated in the right back of each BALB/c nude mouse to test pharmacodynamics in vivo. In the assay, the test compound was administered orally every day for 22 consecutive days, and the anti-PD-1 antibody was administered once per week for three consecutive weeks. The volume of the tumor was measured twice a week with a two-dimensional caliper, and the volume was measured in cubic millimeter, which was calculated by the following formula: V=0.5 a×b^2, wherein a and b were the long and short diameters of the tumor, respectively. The anti-tumor efficacy was determined by dividing the average volume increase of the tumors of animals treated with the compound by the average volume increase of the tumors of the untreated animals. (BID means twice a day)

[2] = Determination of solubility of crystal form A of compound 1 in single or mixed solvents; type: physicochemical; conditions: for solubility: organic solvent or mixture, thermodynamic from solid
Protocol: Assay Example 1: Determination of Solubility of Crystal Form A of Compound 1
Multiple portions of about 2.0 mg of crystal form A of compound 1 were weighed in parallel and placed in glass vials. Various single solvents or mixed solvents listed in Table 2 were gradually added in small amount, and shaken constantly, while the dissolution of the compound was observed. The solubility of the compound was calculated based on the weight of the weighed compound and the volume of the correspondingly added solvent.

[3] = Pharmacokinetics in female Balb/c mice after intravenous injection and oral administration; type: in vivo
Protocol: Object of the assay: to test the pharmacokinetics of the compound in female Balb/c mice in vivo
Balb/c mice (female, 15 to 30 g, 7 to 9 weeks old, from Shanghai Lingchang Biotechnology Company)
The pharmacokinetic profile of the compound after intravenous injection and oral administration in the rodents was tested by the standard protocol. In the assay, the candidate compound was prepared into a clear solution to be administered to the mice through a single intravenous injection and prepared into a homogeneous suspension to be administered to the mice through a single oral administration. The vehicle for the intravenous injection was 5% DMSO/95% 10% Cremophor EL, and the vehicle for the oral administration was 1% Tween 80, 9% PEG400, and 90% water. The whole blood sample was collected within 24 hours, and centrifuged at 3000 g at 4° C. for 15 minutes. The supernatant was separated to give the plasma sample, and 20 times volume of acetonitrile solution containing an internal standard was added to precipitate the proteins. […] The supernatant was taken out, and injected as a sample to quantitatively analyze the plasma drug concentration by LC-MS/MS analysis method. The pharmacokinetic parameters were calculated, such as peak concentration, peak time, clearance rate, half-life, area under the drug-time curve, bioavailability, etc.

[4] = molecular target: T1, human adenosine A2a receptor (Homo sapiens, UniProt P29274); test: Calcium flux assay of the human adenosine A2a receptor (FLIPR, CHO cells stably expressing A2a, agonist NECA); type: cell-based; conditions: conclusion on Table 3
T1 construct: host or cells: CHO cells
Protocol: Calcium Flux Assay of the Human Adenosine A2a Receptor
The cell line stably expressing A2a was constructed by Shanghai WuXi AppTec, and the host cells were CHO cells.
Fluo-4 Direct kit (Invitrogen, Cat. No. F10471). The fluorescence detection reagent in the kit (which can specifically bind to calcium ions and cause an increase in the fluorescence signal) was incubated with the cells for an appropriate period of time, and the compounds were added to stimulate the cells to cause changes in the intracellular calcium flux, thereby causing changes in the fluorescence signal, which can reflect the strength of the agonistic or inhibitory activity of the compounds. […]
FLIPR instrument software was run. According to the set program, 10 μl of the compound dilution buffer was added to the cell plate, and the fluorescence signal was read. Then 10 μl of a predetermined concentration of the agonist as a reference compound was added to the cell plate, and the fluorescence signal was read. After the reading, data was exported through the “Max-Min” and “Read 90 to Maximum allowed” methods in the software. EC80 of the A2A cell line was calculated, and the agonist with a concentration of 6×EC80 was prepared. […]
FLIPR instrument software was run. […] Again, 10 μl of the agonist as a reference compound with a concentration of 6×EC80 was added to the cell plate, and the fluorescence signal was read. […]

T1 sequence (P29274 whole entry): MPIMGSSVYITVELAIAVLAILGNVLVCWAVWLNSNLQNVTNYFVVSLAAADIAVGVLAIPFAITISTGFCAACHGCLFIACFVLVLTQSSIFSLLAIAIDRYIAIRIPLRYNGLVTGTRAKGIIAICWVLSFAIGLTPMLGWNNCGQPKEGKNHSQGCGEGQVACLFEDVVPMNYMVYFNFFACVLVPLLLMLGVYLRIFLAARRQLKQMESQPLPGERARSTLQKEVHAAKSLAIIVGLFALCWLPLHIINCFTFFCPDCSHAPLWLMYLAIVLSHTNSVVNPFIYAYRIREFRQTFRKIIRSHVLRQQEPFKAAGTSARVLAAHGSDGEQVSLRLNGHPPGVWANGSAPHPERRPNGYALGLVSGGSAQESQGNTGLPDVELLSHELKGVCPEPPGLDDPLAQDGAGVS

Cc1cc(-c2c(-c3ccccc3)nc(N)n3nc(CO)nc23)cc(C(F)(F)F)n1 [Crystal form A of compound 1, (5-amino-8-(2-methyl-6-(trifluoromethyl)pyridin-4-yl)-7-phenyl-[1,2,4]triazolo[1,5-c]pyrimidin-2-yl)methanol]
Anti-tumor effect (in words) ([1]; CT-26 mouse model, crystal form A 50 mg/Kg BID): has an anti-tumor effect; also recorded: significant inhibitory effect on the tumor | Volume of tumor ([1]; Day 10): 47 mm^3 | Volume of tumor ([1]; Day 13): 127 mm^3 | Volume of tumor ([1]; Day 15): 204 mm^3 | Volume of tumor ([1]; Day 18): 312 mm^3 | Volume of tumor ([1]; Day 20): 409 mm^3 | Volume of tumor ([1]; Day 22): 538 mm^3 | Solubility in the solvents of Table 2 (in words) ([2]; conclusion on Table 2): good solubility | solubility ([2]; solvent 1,4-Dioxane): 35 to 52.5 mg/mL (≈ 87.4 to 131 mM) | solubility ([2]; solvent Acetone): 33.3 to 50 mg/mL (≈ 83.2 to 125 mM) | solubility ([2]; solvent Acetonitrile): 12.2 to 13.8 mg/mL (≈ 30.5 to 34.5 mM) | solubility ([2]; solvent Acetonitrile:Water (2:1)): 26.3 to 35 mg/mL (≈ 65.7 to 87.4 mM) | solubility ([2]; solvent Ethanol): 28.8 to 38.3 mg/mL (≈ 71.9 to 95.7 mM) | solubility ([2]; solvent Ethanol:Water (3:1)): 25 to 50 mg/mL (≈ 62.4 to 125 mM) | solubility ([2]; solvent Ethyl acetate): 12.5 to 16.7 mg/mL (≈ 31.2 to 41.7 mM) | solubility ([2]; solvent Isopropanol): 14.4 to 16.4 mg/mL (≈ 36 to 41 mM) | solubility ([2]; solvent Methanol): 47.5 to 95 mg/mL (≈ 119 to 237 mM) | solubility ([2]; solvent Methyl ethyl ketone): 36.7 to 55 mg/mL (≈ 91.7 to 137 mM) | solubility ([2]; solvent N-butanol): 15.7 to 18.3 mg/mL (≈ 39.2 to 45.7 mM) | solubility ([2]; solvent Tetrahydrofuran): > 105 mg/mL

Cc1cc(-c2c(-c3ccccc3)nc(N)n3nc(CO)nc23)cc(C(F)(F)F)n1 [Compound 1, (5-amino-8-(2-methyl-6-(trifluoromethyl)pyridin-4-yl)-7-phenyl-[1,2,4]triazolo[1,5-c]pyrimidin-2-yl)methanol]
Pharmacokinetic index in mice (in words) ([3]; conclusion on Table 4): excellent pharmacokinetic index | clearance ([3]; mouse, plasma, female Balb/c mice, single intravenous injection, read-out: Clearance rate): 18 mL/min/kg | Antagonistic activity against the adenosine A2a receptor (in words) [4]: excellent antagonistic activity
